Results on 16 compounds are retold here after patent US20240181022A1, “AMURINS LYSINS, AND LYSIN-ANTIMICROBIAL PEPTIDE (AMP) CONSTRUCTS ACTIVE AGAINST GRAM-NEGATIVE BACTERIA” (priority 2021, published 2024).

For assay [1], the system named is P. aeruginosa. The assay can be described thus: Checkerboard synergy assay (FICI) with antibiotics against P. aeruginosa. It counts as cell-based, Pseudomonas aeruginosa. The note with it: for Antibiotic MIC (single agent): P. aeruginosa strain AR-769; for Antibiotic FIC / Antibiotic MIC (combo): P. aeruginosa strain AR-769, in combination with GN370; for Antibiotic MIC (combo): in µg/mL. Here is the method:
Any known method to assess MIC may be used.
Checkerboards are constructed by first preparing columns of e.g., a 96-well polypropylene microtiter plate, wherein each well has the same amount of antibiotic diluted 2-fold along the horizontal axis. […] Bacteria are added to the drug combinations at concentrations of 1×10^5 […] in CAA, for example, with or without human serum or pulmonary surfactant. […] Summation fractional inhibitory concentrations (ΣFICs) are calculated for each drug and the minimum ΣFIC value (ΣFICmin) is used to determine the effect of the Chp peptide/antibiotic combination.
The synergy of GN370 with meropenem was evaluated against 3 different strains of P. aeruginosa and three different strains of B. cenocepacia.
GN370 was further tested in combination with up to seven additional antibiotics (in addition to meropenem) against a variety of bacterial strains, including P. aeruginosa, A. baumannii, E. coli, E. cloacae, and K. pneumoniae. GN370 and the subject antibiotics were tested in a checkerboard assay format, and FICI values were determined, wherein ≤0.5 indicates synergy, >0.5-≤1 indicates additive; and >1 indicates indifferent.

In assay [2] the test system is M. avium. Put plainly: MIC against M. avium. Type of assay: cell-based, Mycobacterium avium. Conditions: M. avium (ATCC 700898); CAAT media.
Assay [3] concerns M. fortuitum. The assay can be described thus: MIC against M. fortuitum. Type of assay: cell-based, Mycobacterium fortuitum. The note with it: M. fortuitum (ATCC 6841); CAAT media.
Assay [4] deals with M. kansasii. Put plainly: MIC against M. kansasii. It counts as cell-based, Mycobacterium kansasii. Conditions: M. kansasi (ATCC 12478); CAAT media.
In assay [5] the test system is M. intracellulare. The assay can be described thus: MIC against M. intracellulare. Type of assay: cell-based, Mycobacterium intracellulare. The note with it: M. intracellulare (ATCC 13950); CAAT media.
Assay [6] deals with M. scrofulaceum. Put plainly: MIC against M. scrofulaceum. It counts as cell-based, Mycobacterium scrofulaceum. The note with it: M. scrofulaceum (ATCC 19981); CAAT media.
In assay [7] the test system is M. smegmatis. The assay can be described thus: MIC against M. smegmatis. Type of assay: cell-based, Mycobacterium smegmatis. Conditions: M. smegmatis (MC 155); CAAT media.
The subject of assay [8] is M. tuberculosis. It counts as cell-based, Mycobacterium tuberculosis. Conditions: M. tuberculosis (ATCC 35817); (ADC, T) media.

“And” between values parts separate entries of the source, which are not always exact repeats. Equal values may be shown once. Where no end group is shown, it is not given here. [ ]: non-standard residue; d: D form.

As to `CO/N=C(\C(=O)N[C@@H]1C(=O)N2C(C(=O)[O-])=C(C[N+]3(C)CCCC3)CS[C@H]12)c1csc(N)n1` [Cefepime], in assay [1], the Antibiotic MIC (single agent) turned out to be 256 µg/mL; the “Antibiotic FIC” value was 0.25 and 0.125; the “Antibiotic MIC (combo)” value was 64 and 32.

As for `CC(C)(O/N=C(\C(=O)N[C@@H]1C(=O)N2C(C(=O)[O-])=C(C[n+]3ccccc3)CS[C@H]12)c1csc(N)n1)C(=O)O` [Ceftazidime], in assay [1], the Antibiotic MIC (single agent) was found to be 512 µg/mL, the “Antibiotic FIC” value stood at 1 and the “Antibiotic MIC (combo)” value is recorded as 512.

On to “AGT915: SEQ ID NO: 63, Marine gokushovirus (MRRYNVNKGKSAKKFRKQVSKTKVANLRSNPMRGGWRL; listed as Marine gokushovirus)”, for which the MIC in assay [2] is more than 64 Tg/mL; in assay [3], 1 µg/mL; in assay [4] it was 1 µg/mL; in assay [5], more than 64 µg/mL; in assay [6], more than 64 µg/mL; in assay [7], 1 µg/mL. In assay [8], this compound came in with an MIC of 4 µg/mL.

“ALCES1: SEQ ID NO: 59, Alces alces faeces associated microvirus (MAKKIRNKARDRRIFTRTASRMHKANRTPRFMRGGIRL; Alces alces faeces associated microvirus MP12 5423)”: the MIC is 8 Tg/mL in assay [2]; 4 µg/mL in assay [3]; 2 µg/mL in assay [4]; 2 µg/mL in assay [5]; 2 µg/mL in assay [6]; 2 µg/mL in assay [7]. In assay [8], this compound registered an MIC of 8 µg/mL.

For “AVQ206: SEQ ID NO: 60, Gokushovirinae environmental samples (MRRKKMSRGKSKKLFRRTAKRVHRKNLRARPMRGGIRM)”, the MIC in assay [2] turned out to be 1 Tg/mL; in assay [3], 2 µg/mL; in assay [4] it was 2 µg/mL; in assay [5] it was 4 µg/mL; in assay [6] it was 4 µg/mL; in assay [7], 16 µg/mL. Moreover, in assay [8], the MIC was determined as 8 µg/mL.

Regarding “Chp1: Chp peptide, SEQ ID NO: 1, Phage Chp1 (MVRRRRLRRRISRRIFRRTVARVGRRRRSFRGGIRF; Chlamydia virus Chp1)”, the MIC was 4 Tg/mL in assay [2]; 16 µg/mL in assay [3]; 4 µg/mL in assay [4]; 4 µg/mL in assay [5]; 4 µg/mL in assay [6]; 16 µg/mL in assay [7]. Further, in assay [8], the MIC turned out to be 32 µg/mL.

For the compound “Chp4: Chp peptide, SEQ ID NO: 4, Phage 4 (MARRYRLSRRRSRRLFSRTALRMHRRNRLRRIMRGGIRF; Chlamydia phage 4)”, the MIC is 1 Tg/mL in assay [2]; 4 µg/mL in assay [3]; more than 0.125 µg/mL in assay [4]; 1 µg/mL in assay [5]; 2 µg/mL in assay [6]; 4 µg/mL in assay [7]. Moreover, in assay [8], the MIC is 16 µg/mL.

“Chp8: Chp peptide, SEQ ID NO: 8 (MSKKRSRMSRRRSKKLFSKTALRTKSVNTRPPMRGGFRF; listed as Chlamydia trachomatis)”: the MIC in assay [2] stood at 8 Tg/mL; in assay [3], 2 µg/mL; in assay [4], 4 µg/mL; in assay [5], 4 µg/mL; in assay [6], 4 µg/mL; in assay [7], 8 µg/mL. Further, in assay [8], the MIC amounted to 8 µg/mL.

As for “Chp9: Chp peptide, SEQ ID NO: 9 (MSLRRHKLSRKASKRIFRKGASRTKTLNTRATPMRGGFRI; listed as Chlamydia trachomatis)”, the MIC in assay [2] was more than 64 Tg/mL; in assay [3], 4 µg/mL; in assay [4], 8 µg/mL; in assay [5], 4 µg/mL; in assay [6], 8 µg/mL; in assay [7] it was 8 µg/mL. This compound registered an MIC in assay [8] of 8 µg/mL.

Regarding “Chp10: Chp peptide, SEQ ID NO: 10 (MKRRKLSKKKSRKIFTRGAVNVKKRNLRARPMRGGFRI; listed as Chlamydia trachomatis)”, the MIC in assay [2] was determined as 0.5 Tg/mL; in assay [3] it was 1 µg/mL; in assay [4], 4 µg/mL; in assay [5] it was 0.5 µg/mL; in assay [6], 0.5 µg/mL; in assay [7], 1 µg/mL. For the same compound, in assay [8], the MIC was determined as 8 µg/mL.

Take “Ecp2: SEQ ID NO: 18, hypothetical protein (E. coli) (MARSRRRMSKRSSRRSFRKYAKSHKKNFKARSMRGGIRL; listed as Escherichia coli)”: the MIC in assay [2] was found to be 2 Tg/mL; in assay [3] it was 4 µg/mL; in assay [4] it was 2 µg/mL; in assay [5] it was 8 µg/mL; in assay [6] it was 4 µg/mL; in assay [7], 8 µg/mL. Moreover, the MIC in assay [8] was found to be 4 µg/mL.

On to “Ecp3-M1: Modified variant of Ecp3, SEQ ID NO: 100 (MA[dR]S[dR][dR][dR]MS[dK][dR]SS[dR][dR]SF[dR][dK]YA[dK]TH[dK][dK]NF[dK]A[dR]SM[dR]GGI[dR]L)”, for which the MIC in assay [2] is 0.5 Tg/mL; in assay [3], 8 µg/mL; in assay [4], 2 µg/mL; in assay [5], 8 µg/mL; in assay [6], 2 µg/mL; in assay [7] it was 1 µg/mL. The MIC in assay [8] worked out at 8 µg/mL.

Take “Ecp3: SEQ ID NO: 55, nonstructural protein (Escherichia) (MARSRRRMSKRSSRRSFRKYAKTHKKNFKARSMRGGIRL; listed as Escherichia sp.)”: the MIC was 1 Tg/mL in assay [2]; 2 µg/mL in assay [3]; 2 µg/mL in assay [4]; 8 µg/mL in assay [5]; 2 µg/mL in assay [6]; 8 µg/mL in assay [7]. In assay [8], this compound displayed an MIC of 8 µg/mL.

“Fen7875: SEQ ID NO: 65, Gokushovirinae Fen7875_21 (MKPLKRKPVQKARSAAKFRRNVSTVKAANMAVKPMRGGWRF)”: the MIC in assay [2] turned out to be 2 Tg/mL; in assay [3] it was 8 µg/mL; in assay [4], 32 µg/mL; in assay [5] it was 8 µg/mL; in assay [6] it was 16 µg/mL; in assay [7], 16 µg/mL. This compound had an MIC in assay [8] of 4 µg/mL.

Turning to “Gkh1: SEQ ID NO: 13, Marine gokushovirus (MRRPRKMNYKKSKRMFSRTAARTHRKNSLRGSRPMRGGIRL; listed as Marine gokushovirus)”, the MIC in assay [2] worked out at 4 Tg/mL; in assay [3] it was 1 µg/mL; in assay [4] it was 2 µg/mL; in assay [5] it was 4 µg/mL; in assay [6] it was 8 µg/mL; in assay [7], 4 µg/mL. The compound further showed an MIC in assay [8] of 8 µg/mL.

For “HH3930: SEQ ID NO: 64, Richelia intracellularis HH01 (MRPVKRSRVNKARSAGKFRKQVGKTKMANLRSNPMRGGWRL)”, the MIC in assay [2] is 4 Tg/mL; in assay [3], 8 µg/mL; in assay [4], 32 µg/mL; in assay [5] it was 16 µg/mL; in assay [6], 16 µg/mL; in assay [7], 16 µg/mL. In addition, the MIC in assay [8] was determined as 4 µg/mL.
